Measurements taken from the NIST ThermoML archive (doi:10.1021/je100952p).
± gives the expanded uncertainty stated by the source.

Experiment: activity coefficient (dimensionless); of the first substance listed, at infinite dilution; xn = mol fraction of the nth substance listed
Conditions: 101 kPa, Liquid, Chromatography, x1 = 0

| activity coefficient (303.15 K) | activity coefficient (313.15 K) | activity coefficient (323.15 K) | activity coefficient (333.15 K) | activity coefficient (343.15 K) | activity coefficient (353.15 K) | activity coefficient (363.15 K) | SMILES |
| --- | --- | --- | --- | --- | --- | --- | --- |
| 9.13 ± 0.59 | 9.11 ± 0.59 | 9.1 ± 0.6 | 9.08 ± 0.59 | 9.07 ± 0.59 | 9.07 ± 0.59 | 9.06 ± 0.59 | CC(C)CC(C)(C)C [2,2,4-trimethylpentane] + CCCCCCCCCCn1cc[n+](C)c1.F[B-](F)(F)F |
| 1.15 ± 0.07 | 1.14 ± 0.07 | 1.11 ± 0.07 | 1.1 ± 0.1 | 1.08 ± 0.06 | 1.07 ± 0.06 | 1.06 ± 0.06 | c1ccccc1 [benzene] + CCCCCCCCCCn1cc[n+](C)c1.F[B-](F)(F)F |
| 8.01 ± 0.52 | 7.97 ± 0.52 | 7.95 ± 0.51 | 7.93 ± 0.51 | 7.91 ± 0.51 | 7.89 ± 0.51 | 7.88 ± 0.51 | CCCCCCC [heptane] + CCCCCCCCCCn1cc[n+](C)c1.F[B-](F)(F)F |
| 5.19 ± 0.34 | 5.23 ± 0.34 | 5.24 ± 0.34 | 5.28 ± 0.34 | 5.32 ± 0.34 | 5.36 ± 0.35 | 5.39 ± 0.35 | CC1CCCCC1 [methylcyclohexane] + CCCCCCCCCCn1cc[n+](C)c1.F[B-](F)(F)F |
| 9.3 ± 0.6 | 9.26 ± 0.6 | 9.21 ± 0.6 | 9.2 ± 0.6 | 9.17 ± 0.59 | 9.16 ± 0.59 | 9.13 ± 0.59 | CCCCCCCC [octane] + CCCCCCCCCCn1cc[n+](C)c1.F[B-](F)(F)F |
| 6.88 ± 0.45 | 6.72 ± 0.43 | 6.53 ± 0.42 | 6.29 ± 0.41 | 6.12 ± 0.4 | 6.01 ± 0.39 | 5.93 ± 0.38 | CCCCC [pentane] + CCCCCCCCCCn1cc[n+](C)c1.F[B-](F)(F)F |

Further lines, the molecule ahead of its results:

| SMILES | activity coefficient (303.15 K) | activity coefficient (313.15 K) | activity coefficient (323.15 K) | activity coefficient (333.15 K) | activity coefficient (343.15 K) | activity coefficient (353.15 K) | activity coefficient (363.15 K) |
| --- | --- | --- | --- | --- | --- | --- | --- |
| Cc1ccccc1C [1,2-dimethylbenzene] + CCCCCCCCCCn1cc[n+](C)c1.F[B-](F)(F)F | 1.79 ± 0.11 | 1.77 ± 0.11 | 1.75 ± 0.11 | 1.73 ± 0.11 | 1.72 ± 0.11 | 1.72 ± 0.11 | 1.71 ± 0.11 |
| Cc1cccc(C)c1 [1,3-dimethylbenzene] + CCCCCCCCCCn1cc[n+](C)c1.F[B-](F)(F)F | 2.03 ± 0.13 | 2.02 ± 0.13 | 1.97 ± 0.13 | 1.95 ± 0.13 | 1.94 ± 0.12 | 1.92 ± 0.12 | 1.91 ± 0.12 |
| Cc1ccc(C)cc1 [1,4-dimethylbenzene] + CCCCCCCCCCn1cc[n+](C)c1.F[B-](F)(F)F | 1.99 ± 0.13 | 1.96 ± 0.13 | 1.93 ± 0.12 | 1.92 ± 0.12 | 1.91 ± 0.12 | 1.88 ± 0.12 | 1.86 ± 0.12 |
| C1CCCCC1 [cyclohexane] + CCCCCCCCCCn1cc[n+](C)c1.F[B-](F)(F)F | 4.42 ± 0.29 | 4.43 ± 0.29 | 4.43 ± 0.29 | 4.47 ± 0.29 | 4.5 ± 0.3 | 4.56 ± 0.29 | 4.69 ± 0.3 |
| C1=CCCCC1 [cyclohexene] + CCCCCCCCCCn1cc[n+](C)c1.F[B-](F)(F)F | 3.03 ± 0.2 | 3.01 ± 0.19 | 2.99 ± 0.19 | 2.97 ± 0.19 | 2.96 ± 0.19 | 2.96 ± 0.19 | 2.96 ± 0.19 |
| CCc1ccccc1 [ethylbenzene] + CCCCCCCCCCn1cc[n+](C)c1.F[B-](F)(F)F |  | 2.02 ± 0.13 | 2.01 ± 0.13 | 1.99 ± 0.13 | 1.98 ± 0.13 | 1.97 ± 0.13 | 1.96 ± 0.13 |
| CCCCCC [hexane] + CCCCCCCCCCn1cc[n+](C)c1.F[B-](F)(F)F | 7.36 ± 0.48 | 7.16 ± 0.46 | 7.03 ± 0.45 | 6.94 ± 0.45 | 6.86 ± 0.44 | 6.81 ± 0.44 | 6.68 ± 0.43 |
| CCCCCCCCC [nonane] + CCCCCCCCCCn1cc[n+](C)c1.F[B-](F)(F)F | 10.7 ± 0.69 | 10.7 ± 0.69 | 10.7 ± 0.69 | 10.7 ± 0.69 | 10.7 ± 0.69 | 10.7 ± 0.69 | 10.6 ± 0.69 |
| C=Cc1ccccc1 [styrene] + CCCCCCCCCCn1cc[n+](C)c1.F[B-](F)(F)F |  | 1.25 ± 0.08 | 1.22 ± 0.07 | 1.2 ± 0.1 | 1.18 ± 0.07 | 1.16 ± 0.07 | 1.14 ± 0.07 |
| Cc1ccccc1 [toluene] + CCCCCCCCCCn1cc[n+](C)c1.F[B-](F)(F)F | 1.52 ± 0.09 | 1.49 ± 0.09 | 1.47 ± 0.09 | 1.43 ± 0.09 | 1.41 ± 0.09 | 1.4 ± 0.1 | 1.35 ± 0.08 |
